According to ChEMBL document CHEMBL4507283, “Data for DCP probe BI-1935” (2021):

Assays:
[1] = molecular target: Type-1 angiotensin II receptor (Oryctolagus cuniculus) (UniProt P34976); assay: AT1 Eurofins-Panlabs selectivity data (BI); settings: Homo sapiens; Compound concentration 10.0 uM
[2] = molecular target: Voltage-dependent L-type calcium channel subunit alpha-1C (Rattus norvegicus, UniProt P22002); assay: CA+/TLATATG Eurofins-Panlabs selectivity data (BI); parameters: species or system Cavia porcellus; mode of action antagonist; settings: guinea pig, atrial tissue, read-out: % Ctrl
Sequence of Voltage-dependent L-type calcium channel subunit alpha-1C (P22002 whole entry): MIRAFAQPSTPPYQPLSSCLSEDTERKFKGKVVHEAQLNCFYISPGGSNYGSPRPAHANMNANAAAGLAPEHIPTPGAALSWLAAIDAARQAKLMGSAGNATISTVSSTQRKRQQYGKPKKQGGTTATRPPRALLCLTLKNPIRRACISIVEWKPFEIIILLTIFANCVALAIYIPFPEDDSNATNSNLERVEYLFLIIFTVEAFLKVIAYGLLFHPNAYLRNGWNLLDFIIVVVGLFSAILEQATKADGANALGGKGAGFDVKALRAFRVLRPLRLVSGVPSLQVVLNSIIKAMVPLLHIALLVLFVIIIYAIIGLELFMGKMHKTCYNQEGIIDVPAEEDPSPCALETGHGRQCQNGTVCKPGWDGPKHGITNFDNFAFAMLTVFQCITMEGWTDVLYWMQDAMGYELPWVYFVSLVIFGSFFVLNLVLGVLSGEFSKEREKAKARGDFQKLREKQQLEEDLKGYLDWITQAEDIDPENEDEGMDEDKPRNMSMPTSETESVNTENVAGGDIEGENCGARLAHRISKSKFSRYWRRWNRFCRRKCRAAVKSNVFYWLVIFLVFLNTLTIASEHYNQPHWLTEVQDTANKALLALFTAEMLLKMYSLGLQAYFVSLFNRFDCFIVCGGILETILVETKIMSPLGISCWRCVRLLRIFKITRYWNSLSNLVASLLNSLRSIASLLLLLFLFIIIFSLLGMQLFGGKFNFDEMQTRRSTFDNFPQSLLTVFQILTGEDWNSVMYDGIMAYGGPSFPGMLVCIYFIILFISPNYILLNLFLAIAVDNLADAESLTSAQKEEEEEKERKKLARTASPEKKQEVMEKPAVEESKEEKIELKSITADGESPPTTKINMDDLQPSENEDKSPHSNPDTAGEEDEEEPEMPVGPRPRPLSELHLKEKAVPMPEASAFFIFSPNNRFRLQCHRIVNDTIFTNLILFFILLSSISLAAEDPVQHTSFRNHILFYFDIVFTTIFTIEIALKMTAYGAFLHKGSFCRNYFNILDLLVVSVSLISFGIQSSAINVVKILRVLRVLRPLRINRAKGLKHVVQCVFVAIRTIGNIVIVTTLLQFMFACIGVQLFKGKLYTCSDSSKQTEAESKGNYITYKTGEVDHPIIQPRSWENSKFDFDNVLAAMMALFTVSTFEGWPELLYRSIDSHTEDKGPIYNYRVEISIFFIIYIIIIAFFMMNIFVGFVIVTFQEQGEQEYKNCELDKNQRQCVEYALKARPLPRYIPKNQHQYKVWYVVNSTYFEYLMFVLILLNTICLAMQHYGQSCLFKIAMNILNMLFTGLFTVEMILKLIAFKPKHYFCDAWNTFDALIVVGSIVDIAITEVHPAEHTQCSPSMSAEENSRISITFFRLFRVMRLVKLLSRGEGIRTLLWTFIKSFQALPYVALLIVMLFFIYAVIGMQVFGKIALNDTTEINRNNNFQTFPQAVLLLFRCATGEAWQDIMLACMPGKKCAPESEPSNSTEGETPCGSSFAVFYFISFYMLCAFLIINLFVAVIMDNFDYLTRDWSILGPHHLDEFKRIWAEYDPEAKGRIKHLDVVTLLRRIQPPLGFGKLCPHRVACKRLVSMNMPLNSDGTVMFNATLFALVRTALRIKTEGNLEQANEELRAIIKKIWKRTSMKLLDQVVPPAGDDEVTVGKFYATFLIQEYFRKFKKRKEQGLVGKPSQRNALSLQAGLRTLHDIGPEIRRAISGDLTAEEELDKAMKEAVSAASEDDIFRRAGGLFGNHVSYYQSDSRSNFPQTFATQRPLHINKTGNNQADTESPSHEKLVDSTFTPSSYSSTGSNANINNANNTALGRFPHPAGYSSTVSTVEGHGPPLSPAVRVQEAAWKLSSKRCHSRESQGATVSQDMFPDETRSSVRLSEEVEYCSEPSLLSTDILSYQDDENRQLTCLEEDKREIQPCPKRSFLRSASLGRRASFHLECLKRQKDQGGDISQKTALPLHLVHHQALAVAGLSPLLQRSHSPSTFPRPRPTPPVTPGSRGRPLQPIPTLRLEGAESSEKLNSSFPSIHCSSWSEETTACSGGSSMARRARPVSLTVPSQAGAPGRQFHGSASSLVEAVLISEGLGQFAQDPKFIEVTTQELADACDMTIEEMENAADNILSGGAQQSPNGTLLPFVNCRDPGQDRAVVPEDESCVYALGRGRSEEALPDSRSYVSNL

[3] = molecular target: Cannabinoid receptor 1 (Homo sapiens) (UniProt P21554); assay: CB1/H Eurofins-Panlabs selectivity data (BI); settings: Compound concentration 10.0 uM
[4] = molecular target: D(3) dopamine receptor (Homo sapiens) (UniProt P35462); assay: D3/HU Eurofins-Panlabs selectivity data (BI); settings: Compound concentration 10.0 uM
[5] = molecular target: Nitric oxide synthase 3 (Bos taurus) (UniProt P29473); assay: ENOS_MDS Eurofins-Panlabs selectivity data (BI); settings: Compound concentration 10.0 uM
[6] = molecular target: ATP-sensitive inward rectifier potassium channel 1 isoform X1 (Mesocricetus auratus) (UniProt A0A1U8CU73); assay: K+/KATP/HA Eurofins-Panlabs selectivity data (BI); settings: Compound concentration 10.0 uM
[7] = tested on: Tyrosine-protein kinase ABL1 (Homo sapiens), P00519 [H396P]; settings: Compound concentration 1000.0 nM
[8] = tested on: Tyrosine-protein kinase ABL1 (Homo sapiens), P00519 [Q252H]; settings: Compound concentration 1000.0 nM
[9] = tested on: Tyrosine-protein kinase ABL1 (Homo sapiens), P00519 [Y253F]; settings: Compound concentration 1000.0 nM
[10] = molecular target: Activin receptor type-2A (Homo sapiens) (UniProt P27037); settings: Compound concentration 1000.0 nM
[11] = molecular target: RAC-beta serine/threonine-protein kinase (Homo sapiens) (UniProt P31751); settings: Compound concentration 1000.0 nM
[12] = molecular target: Bone morphogenetic protein receptor type-1B (Homo sapiens) (UniProt O00238); settings: Compound concentration 1000.0 nM
[13] = molecular target: Megakaryocyte-associated tyrosine-protein kinase (Homo sapiens) (UniProt P42679); settings: Compound concentration 1000.0 nM
[14] = molecular target: Serine/threonine-protein kinase DCLK1 (Homo sapiens) (UniProt O15075); settings: Compound concentration 1000.0 nM
[15] = molecular target: Discoidin domain-containing receptor 2 (Homo sapiens) (UniProt Q16832); settings: Compound concentration 1000.0 nM
[16] = molecular target: Serine/threonine-protein kinase MRCK gamma (Homo sapiens) (UniProt Q6DT37); settings: Compound concentration 1000.0 nM
Sequence of Serine/threonine-protein kinase MRCK gamma (Homo sapiens) (Q6DT37 whole entry): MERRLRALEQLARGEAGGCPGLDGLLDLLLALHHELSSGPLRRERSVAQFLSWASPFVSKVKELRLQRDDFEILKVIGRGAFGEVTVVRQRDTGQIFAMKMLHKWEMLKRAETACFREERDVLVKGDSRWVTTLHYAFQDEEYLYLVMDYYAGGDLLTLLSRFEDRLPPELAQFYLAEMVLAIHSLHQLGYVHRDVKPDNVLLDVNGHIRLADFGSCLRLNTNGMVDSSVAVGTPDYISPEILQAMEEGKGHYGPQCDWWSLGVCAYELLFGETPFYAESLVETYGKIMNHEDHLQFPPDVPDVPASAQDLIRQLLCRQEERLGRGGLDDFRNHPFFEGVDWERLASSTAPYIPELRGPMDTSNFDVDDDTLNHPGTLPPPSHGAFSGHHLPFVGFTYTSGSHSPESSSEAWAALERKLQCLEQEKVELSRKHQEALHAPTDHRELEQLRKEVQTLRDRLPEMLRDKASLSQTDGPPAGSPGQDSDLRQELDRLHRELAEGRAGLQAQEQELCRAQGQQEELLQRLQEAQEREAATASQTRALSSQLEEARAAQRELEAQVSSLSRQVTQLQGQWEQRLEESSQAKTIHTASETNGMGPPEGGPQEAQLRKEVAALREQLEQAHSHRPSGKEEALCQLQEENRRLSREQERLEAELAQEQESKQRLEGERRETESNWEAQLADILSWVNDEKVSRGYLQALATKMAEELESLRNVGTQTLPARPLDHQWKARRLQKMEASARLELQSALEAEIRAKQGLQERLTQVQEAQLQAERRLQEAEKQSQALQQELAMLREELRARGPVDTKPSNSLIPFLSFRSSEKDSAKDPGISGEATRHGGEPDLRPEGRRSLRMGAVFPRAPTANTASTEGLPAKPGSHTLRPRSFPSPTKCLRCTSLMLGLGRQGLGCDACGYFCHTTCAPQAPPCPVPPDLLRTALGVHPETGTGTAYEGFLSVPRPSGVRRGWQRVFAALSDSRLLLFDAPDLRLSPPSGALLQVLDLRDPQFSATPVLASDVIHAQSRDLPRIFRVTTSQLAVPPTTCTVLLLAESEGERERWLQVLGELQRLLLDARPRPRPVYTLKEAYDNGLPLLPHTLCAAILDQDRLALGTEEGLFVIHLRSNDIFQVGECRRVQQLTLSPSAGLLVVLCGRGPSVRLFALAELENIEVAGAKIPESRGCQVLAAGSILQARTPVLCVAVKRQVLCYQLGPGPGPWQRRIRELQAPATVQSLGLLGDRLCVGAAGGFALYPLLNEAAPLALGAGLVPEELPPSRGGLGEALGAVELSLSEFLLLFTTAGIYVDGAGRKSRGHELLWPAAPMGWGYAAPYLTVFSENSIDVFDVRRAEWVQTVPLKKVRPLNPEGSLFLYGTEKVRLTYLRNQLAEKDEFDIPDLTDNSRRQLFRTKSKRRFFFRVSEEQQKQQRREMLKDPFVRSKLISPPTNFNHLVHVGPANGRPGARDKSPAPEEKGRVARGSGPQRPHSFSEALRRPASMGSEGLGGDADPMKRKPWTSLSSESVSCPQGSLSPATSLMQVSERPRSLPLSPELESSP

[17] = molecular target: Ephrin type-B receptor 1 (Homo sapiens) (UniProt P54762); settings: Compound concentration 1000.0 nM
[18] = molecular target: Mitogen-activated protein kinase 4 (Homo sapiens) (UniProt P31152); settings: Compound concentration 1000.0 nM
[19] = molecular target: Serine/threonine-protein kinase/endoribonuclease IRE1 (Homo sapiens) (UniProt O75460); settings: Compound concentration 1000.0 nM
[20] = molecular target: Focal adhesion kinase 1 (Homo sapiens) (UniProt Q05397); settings: Compound concentration 1000.0 nM
[21] = molecular target: G protein-coupled receptor kinase 3 (Homo sapiens) (UniProt P35626); settings: Compound concentration 1000.0 nM
[22] = molecular target: Glycogen synthase kinase-3 alpha (Homo sapiens) (UniProt P49840); settings: Compound concentration 1000.0 nM
[23] = molecular target: Tyrosine-protein kinase HCK (Homo sapiens) (UniProt P08631); settings: Compound concentration 1000.0 nM
[24] = molecular target: Homeodomain-interacting protein kinase 1 (Homo sapiens) (UniProt Q86Z02); settings: Compound concentration 1000.0 nM
[25] = molecular target: Homeodomain-interacting protein kinase 2 (Homo sapiens) (UniProt Q9H2X6); settings: Compound concentration 1000.0 nM
[26] = molecular target: LIM domain kinase 2 (Homo sapiens) (UniProt P53671); settings: Compound concentration 1000.0 nM
[27] = molecular target: Serine/threonine-protein kinase MARK1 (Homo sapiens) (UniProt Q9P0L2); settings: Compound concentration 1000.0 nM
[28] = molecular target: Dual specificity mitogen-activated protein kinase kinase 3 (Homo sapiens) (UniProt P46734); settings: Compound concentration 1000.0 nM
Sequence of Dual specificity mitogen-activated protein kinase kinase 3 (Homo sapiens) (P46734 whole entry): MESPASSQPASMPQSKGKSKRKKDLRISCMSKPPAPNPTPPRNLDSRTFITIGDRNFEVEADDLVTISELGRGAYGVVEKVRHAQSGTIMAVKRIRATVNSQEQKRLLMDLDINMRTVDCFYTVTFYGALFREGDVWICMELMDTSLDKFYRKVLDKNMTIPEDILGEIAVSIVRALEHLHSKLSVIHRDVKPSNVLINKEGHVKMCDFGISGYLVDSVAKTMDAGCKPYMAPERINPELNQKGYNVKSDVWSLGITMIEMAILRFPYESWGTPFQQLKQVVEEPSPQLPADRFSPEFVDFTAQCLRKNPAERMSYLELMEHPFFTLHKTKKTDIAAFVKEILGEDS

[29] = molecular target: Dual specificity mitogen-activated protein kinase kinase 6 (Homo sapiens) (UniProt P52564); settings: Compound concentration 1000.0 nM
[30] = molecular target: Mitogen-activated protein kinase kinase kinase 9 (Homo sapiens) (UniProt P80192); settings: Compound concentration 1000.0 nM
[31] = molecular target: Muscle, skeletal receptor tyrosine-protein kinase (Homo sapiens) (UniProt O15146); settings: Compound concentration 1000.0 nM
[32] = molecular target: Serine/threonine-protein kinase Nek2 (Homo sapiens) (UniProt P51955); settings: Compound concentration 1000.0 nM
[33] = molecular target: Cyclin-dependent kinase 2 homolog (Plasmodium falciparum (isolate 3D7)) (UniProt P61075); settings: Compound concentration 1000.0 nM
Sequence of Cyclin-dependent kinase 2 homolog (Plasmodium falciparum (isolate 3D7)) (P61075 whole entry, the tested form may be a part): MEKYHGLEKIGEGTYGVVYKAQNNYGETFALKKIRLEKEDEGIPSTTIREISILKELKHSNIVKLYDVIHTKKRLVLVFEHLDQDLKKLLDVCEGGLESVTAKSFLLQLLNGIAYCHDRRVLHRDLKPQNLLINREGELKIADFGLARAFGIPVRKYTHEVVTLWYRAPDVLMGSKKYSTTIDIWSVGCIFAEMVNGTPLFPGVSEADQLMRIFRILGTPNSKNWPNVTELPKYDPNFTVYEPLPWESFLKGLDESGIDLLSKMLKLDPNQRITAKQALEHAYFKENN

[34] = molecular target: Phosphatidylinositol 3-kinase C2 domain-containing subunit gamma (Homo sapiens) (UniProt O75747); settings: Compound concentration 1000.0 nM
[35] = molecular target: Serine/threonine-protein kinase PRP4 homolog (Homo sapiens) (UniProt Q13523); settings: Compound concentration 1000.0 nM
[36] = molecular target: Ribosomal protein S6 kinase alpha-2 (Homo sapiens) (UniProt Q15349); settings: Compound concentration 1000.0 nM
[37] = molecular target: Serine/threonine-protein kinase Sgk1 (Homo sapiens) (UniProt O00141); settings: Compound concentration 1000.0 nM
[38] = molecular target: Serine/threonine-protein kinase SIK1 (Homo sapiens) (UniProt P57059); settings: Compound concentration 1000.0 nM
[39] = molecular target: SRSF protein kinase 2 (Homo sapiens) (UniProt P78362); settings: Compound concentration 1000.0 nM
Sequence of SRSF protein kinase 2 (Homo sapiens) (P78362 whole entry, looked up): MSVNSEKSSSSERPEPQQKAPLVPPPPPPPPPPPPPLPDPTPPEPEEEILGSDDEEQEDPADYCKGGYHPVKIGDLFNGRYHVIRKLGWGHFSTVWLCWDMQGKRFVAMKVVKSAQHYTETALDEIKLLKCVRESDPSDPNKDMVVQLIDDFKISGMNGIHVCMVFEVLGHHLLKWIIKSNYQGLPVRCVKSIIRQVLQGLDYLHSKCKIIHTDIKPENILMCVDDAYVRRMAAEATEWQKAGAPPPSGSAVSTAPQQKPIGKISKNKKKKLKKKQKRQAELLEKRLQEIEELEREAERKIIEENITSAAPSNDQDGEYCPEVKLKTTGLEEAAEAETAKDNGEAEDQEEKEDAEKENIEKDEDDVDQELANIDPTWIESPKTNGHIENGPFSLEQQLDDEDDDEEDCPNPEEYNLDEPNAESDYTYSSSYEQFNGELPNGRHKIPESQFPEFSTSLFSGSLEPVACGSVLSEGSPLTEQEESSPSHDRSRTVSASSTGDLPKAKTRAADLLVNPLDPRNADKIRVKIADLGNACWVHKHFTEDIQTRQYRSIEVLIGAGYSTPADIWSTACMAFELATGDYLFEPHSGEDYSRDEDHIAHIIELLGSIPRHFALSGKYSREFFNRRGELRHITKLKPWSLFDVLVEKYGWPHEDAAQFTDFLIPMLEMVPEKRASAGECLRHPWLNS

[40] = molecular target: Serine/threonine-protein kinase 35 (Homo sapiens) (UniProt Q8TDR2); settings: Compound concentration 1000.0 nM
[41] = molecular target: TRAF2 and NCK-interacting protein kinase (Homo sapiens) (UniProt Q9UKE5); settings: Compound concentration 1000.0 nM
[42] = molecular target: Serine/threonine-protein kinase VRK2 (Homo sapiens) (UniProt Q86Y07); settings: Compound concentration 1000.0 nM
[43] = molecular target: Tyrosine-protein kinase ZAP-70 (Homo sapiens) (UniProt P43403); settings: Compound concentration 1000.0 nM
[44] = molecular target: 5-hydroxytryptamine receptor 6 (Homo sapiens) (UniProt P50406); settings: Compound concentration 10.0 uM

Q: Which residual activity [1] does the source give for `CCOCCn1cc(C(=O)Nc2ccc(-n3nc(-c4cccnc4)cc3C(F)(F)F)cn2)ccc1=O` [BI 1935] here?
A: 93%

Q: And the activity at 1 µM ([2]; compound concentration 1 uM)?
A: 86% (not active)

Q: What about the activity at 3 µM ([2]; compound concentration 3 uM) of the same molecule?
A: 68% (not active)

Q: What about the activity at 10 µM ([2]; compound concentration 10 uM) of the same molecule?
A: 25%

Q: And the residual activity [3]?
A: 81%

Q: And the residual activity [4]?
A: 110%

Q: What about the residual activity [5] of the same molecule?
A: 111%

Q: And the residual activity [6]?
A: 92%

Q: What about the residual activity [7] of the same molecule?
A: 100%

Q: What about the residual activity [8] of the same molecule?
A: 73%

Q: What about the residual activity [9] of the same molecule?
A: 73%

Q: What about the residual activity [10] of the same molecule?
A: 100%

Q: What about the residual activity [11] of the same molecule?
A: 100%

Q: And the residual activity [12]?
A: 71%

Q: What about the residual activity [13] of the same molecule?
A: 90%

Q: And the residual activity [14]?
A: 83%

Q: What about the residual activity [15] of the same molecule?
A: 100%

Q: What about the residual activity [16] of the same molecule?
A: 91%

Q: And the residual activity [17]?
A: 100%

Q: What about the residual activity [18] of the same molecule?
A: 100%

Q: And the residual activity [19]?
A: 87%

Q: What about the residual activity [20] of the same molecule?
A: 100%

Q: What about the residual activity [21] of the same molecule?
A: 76%

Q: What about the residual activity [22] of the same molecule?
A: 100%

Q: What about the residual activity [23] of the same molecule?
A: 93%

Q: And the residual activity [24]?
A: 90%

Q: What about the residual activity [25] of the same molecule?
A: 100%

Q: And the residual activity [26]?
A: 100%

Q: And the residual activity [27]?
A: 100%

Q: What about the residual activity [28] of the same molecule?
A: 83%

Q: And the residual activity [29]?
A: 100%

Q: And the residual activity [30]?
A: 93%

Q: And the residual activity [31]?
A: 99%

Q: And the residual activity [32]?
A: 100%

Q: What about the residual activity [33] of the same molecule?
A: 86%

Q: What about the residual activity [34] of the same molecule?
A: 85%

Q: What about the residual activity [35] of the same molecule?
A: 97%

Q: And the residual activity [36]?
A: 89%

Q: And the residual activity [37]?
A: 83%

Q: And the residual activity [38]?
A: 100%

Q: And the residual activity [39]?
A: 100%

Q: What about the residual activity [40] of the same molecule?
A: 94%

Q: What about the residual activity [41] of the same molecule?
A: 100%

Q: What about the residual activity [42] of the same molecule?
A: 97%

Q: What about the residual activity [43] of the same molecule?
A: 67%

Q: And the inhibition [44]?
A: 0.656%
